US12021195B2, “Asymmetric electrolyte salts and batteries incorporating such salts” (OHIO STATE INNOVATION FOUNDATION, priority 2019, dated 2024)
Like-named read-outs stand apart in the source and are kept apart here. Values belong to the molecule of their own block, whether it stands above or below them.

Assays:
[1] = Solubility of potassium salts in DME; conditions: mol fraction of salt
[2] = Ionic conductivity measurements; assay type: physicochemical
Procedure: Ionic Conductivity Measurements A homemade conductivity cell was constructed with two polished stainless steel parallel plates (˜0.3 cm^2) separated by ˜0.2 cm in a Teflon cup. The entire cell was placed in a sealed vial to minimize electrolyte evaporation. To calibrate the cell constant, two conductivity standards (Sigma Aldrich) were used, 25 and […]. The calibrated cell constant was calculated to be 0.706 cm′±0.008 cm^−1. […] […] The electrochemical impedance spectrum was collected from 1 MHz to 0.5 Hz with an AC amplitude of 10 mV. The electrolyte resistance was taken as the impedance where the phase angle is as close to […] as possible in order to minimize any contribution from capacitance or inductance. All conductivity measurements were performed in an argon filled glove box.

[3] = Cyclic voltammetry, oxidative stability window in diglyme
Procedure: The counter electrode was lithium metal. […] The scan rate for each CV measurement was 50 mV/s. The Al dissolution resistance was measured by cyclic voltammetry of a 2-electrode Li∥Al CR2032 coin cell. The potential was swept from 2 V to 6.1 V for a total of 5 cycles. The cell consisted of Li foil and aluminum foil (1.77 cm^2) separated by a 25 μm trilayer celgard membrane (polypropylene-polyethylene-polypropylene).
Since it has been reported that increasing the salt concentration also improves the electrochemical window,^103,107 the stability window of each electrolyte at its highest concentration was examined. In a 3-electrode cell using a platinum working electrode, Li metal counter and a silver wire reference to avoid electrolyte contamination, cyclic voltammetry was used to examine the oxidative window. Multiple scans were collected to see if there was any change with repeat cycling to highly positive voltages (FIG. 5). As a comparison, the most concentrated possible LiTFSI solution (0.2 mol fraction) was also tested.

[4] = Solubility of lithium salts in diglyme; assay type: physicochemical
From the text: In order to probe structure-property relationships among sulfonamide salts, the ionic conductivity was investigated in diglyme solvent and compared with that of LiTFSI. Ethers such as diglyme have strong Lewis basicity, high chemical stability and can dissolve lithium salts via Li+ cation coordination by the lone pair on the oxygen atom.^105 However, the solubility of LiTFSI is relativity low and cannot access the concentrated electrolyte regime. This is in stark contrast to all of the sulfonamide salts investigated here. The solubility of the salts increase in the order LiTFSI<LiMPSA<LiFBSA≈LiFPSA≈LiDESA. To the best of the inventors' knowledge, in ether solvent, these sulfonamide salts have the highest solubility among any lithium salt (0.4× salt, molar ratio diglyme: Salt […]). The ionic conductivity of these electrolytes were investigated as a function of concentration (FIG. 4). The sulfonamide based electrolytes span a much larger concentration range of up to 0.4 mol fraction, where LiTFSI can only be increased up to 0.2 mol fraction. […] This could be due to reduced viscosity of the electrolytes with fluorinated derivatives as well as the ability of the ether oxygen within LiMPSA and LiDESA to coordinate the lithium cation even at low concentrations in a similar fashion to that of diglyme solvent. […]

solubility (mol fraction that can be reached) [1]: 0.6 X
ionic conductivity ([2]; 0.6× KMPSA/DME electrolyte, 25° C.): 0.037 mS/cm
ionic conductivity ([2]; molten salt, 45° C.): 0.003 mS/cm
SMILES: COCCC[N-]S(=O)(=O)C(F)(F)F.[K+] [KMPSA]

oxidative stability window (in words) [3]: one of the highest stabilities
potential out to which cycles after the first show high stability [3]: 6-7 V
SMILES: COCCC[N-]S(=O)(=O)C(F)(F)F.[Li+] [LiMPSA]

The next lines start with the molecule.

SMILES: O=S(=O)([N-]S(=O)(=O)C(F)(F)F)C(F)(F)F.[K+] [KTFSI, potassium bis(trifluoromethanesulfonyl)imide, reference compound]
solubility (mol fraction that can be reached) [1]: ~0.34 X

SMILES: O=S(=O)([N-]CC(F)(F)C(F)(F)F)C(F)(F)F.[Li+] [LiFPSA]
oxidative stability window (in words) [3]: smallest stability window
ionic conductivity compared with salts with an incorporated ether group ([2]; in diglyme): higher ionic conductivity

SMILES: O=S(=O)([N-]S(=O)(=O)C(F)(F)F)C(F)(F)F.[Li+] [LiTFSI, lithium bis(trifluoromethanesulfonyl)imide, reference compound]
solubility (highest concentration reached) [4]: up to 0.2 mol fraction
potential above which rapid decomposition occurs ([3]; 0.2 mol fraction in diglyme, Pt working electrode, 50 mV/s): above 5 V
oxidative stability window (in words) ([3]; each electrolyte at its highest concentration in diglyme (LiTFSI 0.2, LiFPSA 0.4, LiDESA 0.4, LiMPSA 0.33 mol fraction)): one of the lowest stabilities
